# Assay results reported in US20040229960A1, “Compositions and methods of administering tubulin binding agents for the treatment of ocular diseases” (priority 2001, published 2004).
# What was measured:
# [1] = Biodistribution of 14C-CA4P following sub-Tenon's injection; assay type: in vivo, New Zealand rabbits
# Protocol: (§1) ^14C-CA4P (OXiGENE Inc., Watertown, Mass.) was resuspended in 100 ul volume of saline solution and injected with a 30 G needle into the right eyes of anesthesized male New Zealand rabbits (4 months old, 1.8-2.5 kg, n=3 per sample). Three different concentrations of ^14C-CA4P were tested (1, 10, 100 mg/ml) corresponding to doses of 1, 5, and 5 uCi of applied radioactivity respectively. A blank control group was also included. Rabbits were anaesthetized at 1, 6, 24, and 48 hours for blood sampling. After blood collection, the animals were euthanized by Phenobarbital injection and the treated right eyes were removed from all test animals. Ocular tissue samples were dissected from the cornea, aqueous humor, vitreous humor, choroid, or retina, placed in 20-mi glass scintillation vials, vortexed, and incubated for 24 hrs with 500 ul digesting fluid. Plasma was separated from whole blood by centrifugation (1,800 g for 10 minutes). Both ocular tissue samples and plasma were incubated at room temperature with 16 ml of Hionic Fluor™ scintillation fluid for a period of 24 hours prior to radioactivity counting. Each sample was counted for 5 minutes in a Betamatic V counter (Bio-Tek Kontron Instruments, St Quentin en Yvelines, France). The conversion of counts per minute (“cpm”) into disintegrations per minute (“dpm”) was performed automatically by the beta-counter, using calibration curves obtained from ^14C-standards and quenching curves from the respective blank matrices spiked with ^14C-standards. The concentration of drug was determined according to nanogram equivalents of CA4P (ng-Eq/g of tissue) which was calculated from the measured dpm value, the weight of the tissue specimen, and the specific activity of the drug (0.37 mCi/mg), followed by subtraction of the corresponding background value from control eye tissue. A tissue concentration of 1 uM CA4P is equal to […] tissue.
# [2] = Biodistribution of 14C-CA4P following topical administration of a solution formulation; assay type: in vivo, New Zealand rabbits
# Protocol: as §1
# Topical gels and solutions were developed for use as topical formulation suitable for the topical delivery of CA4P to the surface of the eye. Topical solutions (1, 3, and 10%) was directly prepared in 0.9% NaCl (Aguettant, Lyon, France) and sterilized with 0.2 um filter (pH 6.4 to 8.5, osmolarity 290 to 459 mosmol/kg H2O. Low viscosity topical gels (1,3,and 10%) were prepared in 0.5% carboxymethylcellulose (Sigma Aldrich Chimie, St. Quentin Fallavier Cedex, France) with 0.9% NaCl. The physicochemical specifications of each gel are listed in Table 5
# Topical formulations were applied to the surface of right eyes at an applied dose of 5 uCi in a volume of 50 ul. Cornea was sampled instead of sclera. Samples were taken at […] and 24 hours.
# retinoblastoma = assay: Murine transgenic model of retinoblastoma, subconjunctival treatment; assay type: in vivo, SV-40 Large T antigen positive mice
# Protocol: A murine transgenic model of retinoblastoma was used in which SV-40 Large T antigen positive mice develop bilateral retinoblastoma resembling human pediatric retinoblastoma. In this model, tumors first appear at 4 weeks of age and develop in a stable and reproducible manner (Hayden et al., Arch Ophthalmol. 2002;120(3):353-9). In one experiment, 12-week old animals (n=48) were treated with a single 20 ul subconjunctival injection of CA4P (100 mg/ml) in the right eye only. Control mice (n=8) were treated with a balanced salt solution (“BSS”). Eyes were sampled by enucleation at Days 1, 3, 7, 14, 21, and 28 post treatment (n=8 eyes per sample). Samples were fixed, paraffin embedded, serially sectioned, and stained with heometoxylin, eosin, and PAS prior. Each tissue sample was examined for histopathological tumor vascular response.
# In a separate dosing experiment, animals (n=48) were treated with 6 serial biweekly subconjunctival injections of CA4P, at concentrations of 100, 10, 1, 0.1 or 0.01 mg/ml in a volume of 20 ul (n=6 eyes per sample). A control group (n=6) received serial subconjunctival injections of BSS. Eyes were enucleated at 28 days post-treatment and examined for tumor volume reduction. FIG. 5B illustrates the dose-dependent effect of CA4P on tumor vascular volume in comparison to control.
# [3] = tested on: corneal neovascularization; assay: LHP-induced rabbit corneal neovascularization model, IP treatment; assay type: in vivo, New Zealand rabbits; details: late intervention, 50 mg/kg IP from Day 10 (Group 4)
smiles,measurement,setting,value
"COc1ccc(/C=C\c2cc(OC)c(OC)c(OC)c2)cc1OP(=O)([O-])[O-].[Na+].[Na+] [CA4P, combretastatin A4 disodium phosphate]",Cmax,"[1]; aqueous humor, 1 mg/ml sub-Tenon's",300 nM
same,Cmax,"[1]; aqueous humor, 10 mg/ml sub-Tenon's",1800 nM
same,Cmax,"[1]; aqueous humor, 100 mg/ml sub-Tenon's",5920 nM
same,Cmax,"[1]; choroid, 1 mg/ml sub-Tenon's",1200 nM
same,Cmax,"[1]; choroid, 10 mg/ml sub-Tenon's",6200 nM
same,Cmax,"[1]; choroid, 100 mg/ml sub-Tenon's",861000 nM
same,Cmax,"[1]; plasma, 1 mg/ml sub-Tenon's",70 nM
same,Cmax,"[1]; plasma, 10 mg/ml sub-Tenon's",490 nM
same,Cmax,"[1]; plasma, 100 mg/ml sub-Tenon's",9300 nM
same,Concentration of drug delivered,"[1]; retina and choroid, 100 and 10 mg/ml, sub-Tenon's",> 1 µM
same,Cmax,"[1]; retina, 1 mg/ml sub-Tenon's",850 nM
same,Cmax,"[1]; retina, 10 mg/ml sub-Tenon's",7100 nM
same,Cmax,"[1]; retina, 100 mg/ml sub-Tenon's",171000 nM
same,Time of highest concentrations of drug in the eye,[1]; sub-Tenon's injection,within the first hour
same,Cmax,"[1]; vitreous, 1 mg/ml sub-Tenon's",19 nM
same,Cmax,"[1]; vitreous, 10 mg/ml sub-Tenon's",130 nM
same,Cmax,"[1]; vitreous, 100 mg/ml sub-Tenon's",3900 nM
same,Cmax,"[2]; aqueous humor, 1% topical solution",600 nM
same,Cmax,"[2]; aqueous humor, 3% topical solution",1900 nM
same,Cmax,"[2]; aqueous humor, 10% topical solution",4100 nM
same,Cmax,"[2]; choroid, 1% topical solution",870 nM
same,Cmax,"[2]; choroid, 3% topical solution",1900 nM
same,Cmax,"[2]; choroid, 10% topical solution",15600 nM
same,Cmax,"[2]; cornea, 1% topical solution, 50 ul",10000 nM
same,Cmax,"[2]; cornea, 3% topical solution, 50 ul",34000 nM
same,Cmax,"[2]; cornea, 10% topical solution, 50 ul",104000 nM
same,Concentration of drug delivered,"[2]; cornea, all three solution formulations",> 1 µM
same,Cmax,"[2]; plasma, 1% topical solution",70 nM
same,Cmax,"[2]; plasma, 3% topical solution",840 nM
same,Cmax,"[2]; plasma, 10% topical solution",1270 nM
same,Cmax,"[2]; retina, 1% topical solution",270 nM
same,Cmax,"[2]; retina, 3% topical solution",390 nM
same,Cmax,"[2]; retina, 10% topical solution",4200 nM
same,Time of highest concentrations of drug in the eye,[2]; topical solution,within the first hour
same,Intratumoral vascularity,"retinoblastoma; 6 serial biweekly subconjunctival injections, dose levels above 10 mg/ml, 28 days post-treatment",No intratumoral vascularity was present
same,Toxicity,retinoblastoma; any time point or treatment dose (0.01-100 mg/ml subconjunctival),no evidence of toxicity was noted
same,Intratumoral vascularization,"retinoblastoma; single 20 ul subconjunctival injection, 100 mg/ml, Days 1, 3 and 7",significant reduction in intratumoral vascularization
same,Vessel Length on Day 24,[3],1.4 ± 0.46 mm
